Like-named read-outs stand apart in the source and are kept apart here.

Data set [1] has as its system interior spruce somatic embryos. In kind it is in vivo, Picea glauca (Moench) Voss x P. engelmannii Parry ex Engelm. As to conditions: for % with hyperhydricity: in vivo. The source says:
The second study assessed the effects adding various osmotica to nutripriming solutions on subsequent germination and development performance. Mature somatic embryos of interior spruce (Picea glauca (Moench) Voss x P. engelmannii Parry ex Engelm.) genotype 23-2672 were desiccated with the HRHT treatment, and then divided into 10 groups of 160 somatic embryos per group. One group was not primed and served as the HRHT control treatment for this study. […] The nutripriming solutions and embryos were placed into 250-ml Kimax® baffled flasks. The nutripriming duration was 72 hrs at temperatures ranging between 20-23° C., and a 24-hr photoperiod of 30 μmol m^−2s^−1 photosynthetic photon flux.
At the completion of the nutripriming step, the nutriprimed embryos from each treatment were divided into 8 groups of 20 embryos and sown by hand onto vermiculite media in Sigma polycarbonate boxes. The liquid media in these germination boxes were either 3% w/v sucrose m24GMD or m24GMD without sucrose. The experiment design was a random complete block design for each media type. Each nutripriming treatment had 4 replicates of 20 embryos in each germination media type. The germination boxes were placed in a germination room and grown for two weeks under 50-70 μmol m^−2s^−1 photosynthetic photon flux of 16-hour photoperiod at an air temperature of 23° C. The germinants were then harvested and assessed for germination rates, hyperhydricity rates, shoot and root length. Germination was defined as germinants having a root longer than 2 mm, and elongated hypercotyl. Hyperhydricity was defined by the thickening of hypercotyl and watery appearance of the germinants, whether germinated or not germinated.

Data set [2] shares this test system. Nature of the data set: Ascorbic acid in nutripriming solution and germination media: germination and growth of interior spruce genotype 4-2809 somatic embryos. In kind it is in vivo, Picea glauca (Moench) Voss x P. engelmannii Parry ex Engelm. Here is the method:
Mature somatic embryos of interior spruce (Picea glauca (Moench) Voss x P. engelmannii Parry ex […].) genotype 4-2809 were desiccated with the HRHT treatment, and then nutriprimed in 3% w/v sucrose m24GMD solutions for 3 days as previously described. The nutripriming solutions were formulated with one of the following three ascorbic acid treatments; 0, 10 uM, 100 uM. The nutriprimed somatic embryos were then sown into germination boxes containing 150 ml vermiculite plus 120 ml of 3% w/v sucrose m24GMD liquid medium. […] Nutriprimed embryos from each ascorbic acid nutripriming treatment were then sown into triplicate boxes of each ascorbic acid-amended germination medium. After sowing, the germination boxes were sealed twice with ParafilmTM. Embryos were germinated and grown for two weeks under 50-70 μmol m^-2s^-1 photosynthetic photon flux of 16-hour photoperiod at an air temperature of 22° C. Then, the germinants were harvested, and measured.

Where [3] appears, read: germination media m24GMD (without sucrose), osmoticant levels as E220.
[4] abbreviates: germination media m24GMD plus 3% sucrose, osmoticant in m24GMD priming solution (w/v): 1% betaine, 1.65% fructose, glucose, mannitol, sorbitol, 3% lactose, maltose, sucrose, 10% PEG 4000, 72 hrs.
Setting [5] is: germination media m24GMD plus 3% sucrose, osmoticant levels as E220.
The mark [6] stands for this setting: AA 0 μM in germination media, 10 μM in priming solution.
Setting [7] is: AA 0 μM in germination media, 100 μM in priming solution.
Setting [8] is: AA 1 μM in germination media, 0 μM in priming solution.
Setting [9] is: AA 1 μM in germination media, 10 μM in priming solution.
The mark [10] stands for this setting: AA 1 μM in germination media, 100 μM in priming solution.
Setting [11] is: AA 10 μM in germination media, 0 μM in priming solution.
Setting [12] is: AA 10 μM in germination media, 10 μM in priming solution.
Setting [13] is: AA 10 μM in germination media, 100 μM in priming solution.
The mark [14] stands for this setting: AA 100 μM in germination media, 0 μM in priming solution.
Setting [15] is: AA 100 μM in germination media, 10 μM in priming solution.
The mark [16] stands for this setting: AA 100 μM in germination media, 100 μM in priming solution.
Where [17] appears, read: AA 1000 μM in germination media, 0 μM in priming solution.
The mark [18] stands for this setting: AA 1000 μM in germination media, 10 μM in priming solution.
Where [19] appears, read: AA 1000 μM in germination media, 100 μM in priming solution.

Regarding `OC[C@H]1O[C@H](O[C@H]2[C@H](O)[C@@H](O)[C@H](O)O[C@@H]2CO)[C@H](O)[C@@H](O)[C@@H]1O` [maltose], in data set [1] (setting [3]), the Germination % came to 0%, the Root length is 0.8 ± 0.1 mm and the Shoot length worked out at 11.2 ± 0.3 mm. Besides, the Germination % in data set [1] (setting [4]) is reported as 98.8%. Also, in data set [1] (setting [5]), the Root length is reported as 11.5 ± 0.8 mm and the Shoot length is recorded as 14.2 ± 0.3 mm. For the same compound, the “% with hyperhydricity” value in data set [1] is 100%.
Regarding `OC[C@@H](O)[C@@H](O)[C@H](O)[C@@H](O)CO` [sorbitol], the values for the Germination % in data set [1] (setting [3]) and in data set [1] (setting [4]) were 5.0 ± 5.0% and 100%, respectively. In addition, the Root length in data set [1] (setting [3]) was 0.4 ± 0.1 mm; in data set [1] (setting [5]), 15.5 ± 1.0 mm. For the same compound, the Shoot length in data set [1] (setting [3]) is 10.7 ± 0.3 mm; in data set [1] (setting [5]), 14.5 ± 0.4 mm. Also, the “% with hyperhydricity” value in data set [1] came out at 92.6 ± 6.0%.
As to `O=C1O[C@H]([C@@H](O)CO)C(O)=C1O` [AA, Ascorbic acid], the Germination % is reported as 100.0 ± 0.0% in data set [2] (setting [6]); 100.0 ± 0.0% in data set [2] (setting [7]); 96.7 ± 3.3% in data set [2] (setting [8]); 100.0 ± 0.0% in data set [2] (setting [9]); 100.0 ± 0.0% in data set [2] (setting [10]); 97.5 ± 2.5% in data set [2] (setting [11]). The Germination % in data set [2] (setting [12]) is given as 96.7 ± 3.3%; in data set [2] (setting [13]), 100.0 ± 0.0%; in data set [2] (setting [14]), 93.3 ± 3.3%; in data set [2] (setting [15]), 100.0 ± 0.0%; in data set [2] (setting [16]) it was 100.0 ± 0.0%; in data set [2] (setting [17]) it was 100.0 ± 0.0%. The Germination % in data set [2] (setting [18]) and in data set [2] (setting [19]) was 100.0 ± 0.0% in each case. The Root length in data set [2] (setting [6]) amounted to 2.59 ± 0.26 cm; in data set [2] (setting [7]) it was 3.56 ± 0.37 cm; in data set [2] (setting [8]), 1.90 ± 0.23 cm; in data set [2] (setting [9]), 2.07 ± 0.22 cm; in data set [2] (setting [11]) it was 2.46 ± 0.30 cm; in data set [2] (setting [12]), 2.82 ± 0.36 cm. Moreover, the Root length is listed as 3.24 ± 0.32 cm in data set [2] (setting [13]); 2.50 ± 0.33 cm in data set [2] (setting [14]); 3.18 ± 0.42 cm in data set [2] (setting [15]); 3.61 ± 0.39 cm in data set [2] (setting [16]); 2.11 ± 0.25 cm in data set [2] (setting [17]); 2.55 ± 0.20 cm in data set [2] (setting [18]). The Root length in data set [2] (setting [19]) was 2.19 ± 0.26 cm. In addition, the Rooting % in data set [2] (setting [6]) is recorded as 86.7 ± 3.3%; in data set [2] (setting [7]) it was 96.7 ± 3.3%; in data set [2] (setting [8]), 85.8 ± 3.0%; in data set [2] (setting [9]) it was 86.7 ± 8.8%; in data set [2] (setting [10]) it was 90.0 ± 0.0%; in data set [2] (setting [11]) it was 87.5 ± 6.3%. Besides, the Rooting % in data set [2] (setting [12]) is on record as 86.7 ± 3.3%; in data set [2] (setting [13]), 96.7 ± 3.3%; in data set [2] (setting [14]) it was 63.3 ± 8.8%; in data set [2] (setting [15]) it was 78.2%; in data set [2] (setting [16]), 73.0%; in data set [2] (setting [17]), 90.0 ± 0.0%. Besides, the results for the Rooting % in data set [2] (setting [18]) and in data set [2] (setting [19]) were 95.0 ± 5.0% and 90.0 ± 5.8%, respectively. The Shoot length in data set [2] (setting [6]) is reported as 1.86 ± 0.10 cm; in data set [2] (setting [7]) it was 2.07 ± 0.11 cm; in data set [2] (setting [8]), 1.68 ± 0.10 cm; in data set [2] (setting [9]), 1.83 ± 0.11 cm; in data set [2] (setting [10]), 1.79 ± 0.09 cm; in data set [2] (setting [11]), 1.84 ± 0.09 cm. The Shoot length is on record as 1.97 ± 0.19 cm in data set [2] (setting [12]); 2.33 ± 0.11 cm in data set [2] (setting [13]); 1.81 ± 0.09 cm in data set [2] (setting [14]); 2.02 ± 0.11 cm in data set [2] (setting [15]); 2.12 ± 0.11 cm in data set [2] (setting [16]); 1.79 ± 0.14 cm in data set [2] (setting [17]). Moreover, the Shoot length in data set [2] (setting [18]) is on record as 2.00 ± 0.09 cm; in data set [2] (setting [19]), 1.75 ± 0.15 cm.
“polyethylene glycol (PEG) 4000 [PEG 4000]”: in data set [1], the “% with hyperhydricity” value was determined as 97.5 ± 4.3%.
Consider `OC[C@H]1O[C@@H](O[C@H]2[C@H](O)[C@@H](O)C(O)O[C@@H]2CO)[C@H](O)[C@@H](O)[C@H]1O` (some centres unmarked) [lactose], for which the values for the Germination % in data set [1] (setting [3]) and in data set [1] (setting [4]) were 27.6 ± 24.3% and 100%, respectively. Also, the Root length amounted to 0.3 ± 0.1 mm in data set [1] (setting [3]) and 12.4 ± 0.8 mm in data set [1] (setting [5]). Further, the results for the Shoot length in data set [1] (setting [3]) and in data set [1] (setting [5]) were 11.5 ± 0.2 mm and 15.5 ± 0.3 mm, respectively. Besides, in data set [1], the “% with hyperhydricity” value was determined as 100%.
In data set [1] (setting [3]), `O=C(CO)[C@@H](O)[C@H](O)[C@H](O)CO` [fructose] returned a Germination % of 87.5 ± 7.8%, a Root length of 2.1 ± 0.1 mm and a Shoot length of 10.0 ± 0.3 mm. Further, the Germination % in data set [1] (setting [4]) is recorded as 100%. In data set [1] (setting [5]), the Root length came out at 12.2 ± 0.8 mm and the Shoot length amounted to 13.5 ± 0.3 mm. Further, the “% with hyperhydricity” value in data set [1] stood at 86.3 ± 9.4%.
On to `C[N+](C)(C)CC(=O)O` [betaine], for which, in data set [1] (setting [3]), the Germination % is 45.0 ± 26.3%, the Root length came out at 0.4 ± 0.2 mm and the Shoot length is 11.2 ± 0.3 mm. In data set [1] (setting [4]), the Germination % was determined as 100%. Besides, in data set [1] (setting [5]), the Root length was 12.2 ± 0.8 mm and the Shoot length was determined as 14.2 ± 0.3 mm. For the same compound, in data set [1], the “% with hyperhydricity” value was 76.3 ± 19.1%.
In data set [1] (setting [3]), `OC[C@@H](O)[C@@H](O)[C@H](O)[C@H](O)CO` [mannitol] returned a Germination % of 24.6 ± 12.7%, a Root length of 0.3 ± 0.1 mm and a Shoot length of 10.0 ± 0.3 mm. For the same compound, in data set [1] (setting [4]), the Germination % was determined as 100%. In data set [1] (setting [5]), the Root length worked out at 12.0 ± 0.5 mm and the Shoot length was 13.6 ± 0.3 mm. The “% with hyperhydricity” value in data set [1] was 93.5 ± 5.0%.
